Key:
[1] = system: hTERT promoter (PhTERT) expression; assay: SEAP assay (PhTERT-SEAP reporter, H1299); format: cell-based, human; details: Homo sapiens, NCI-H1299, PhTERT-SEAP (H1299); for activity at 1 µM: read-out: Relative SEAP activity (%); for activity at 10 µM / activity at 100 µM: read-out: Relative SEAP activity (%) (converted)
Procedure: H1299 were grown in RPMI 1640 media supplemented with 10% fetal bovine serum, 100 units/mL penicillin and […] streptomycin in a humidified atmosphere with 5% CO2 at 37° C. Culture media were changed every three days. To establish stable cell lines that the expression of hTERT could be monitored by a reporter system, a about 3.3 kbp DNA fragment ranging from −3338 to +1 bp of the hTERT gene (hTERT promoter, PhTERT) was subcloned upstream to a secreted alkaline phosphatase gene (SEAP) and transfected into H1299 bp electroporation. The stable clones were selected using G418. The stable clones derived from H1299 were cultured using conditions that are similar to their parental cells.
Secreted alkaline phosphatase was used as the reporter system to monitor the transcriptional activity of hTERT. Here, about 10^4 cells each were grown in 96-well plates and incubated at 37° C. for 24 hours and changed with fresh media. Varying amounts of drugs were added and cells were incubated for another 24 hours. Culture media were collected and heated at 65° C. for 10 min to inactivate heat-labile phosphatases. An equal amount of SEAP buffer (2 M diethanolamine, 1 mM MgCl2, and 20 mM L-homoarginine) was added to the media and p-nitrophenyl phosphate was added to a final concentration of 12 mM. Absorptions at 405 nm were taken, and the rate of absorption increase is determined (the increasing rate of absorbance at 405 nm was used to represent the activity of SEAP).

HT29 = assay: NCI 60-cell drug screen, one dose; format: cell-based, human; details: Colon Cancer HT29, 1.00E−5 Molar
Procedure: (§1) In brief, cellular protein levels were determined after 48 hours of drug exposure by sulforhodamine B colorimetry.
(§2) The screening system in United State National Cancer Institute (NCI) consists of 60 kinds of different human cancer cells, which can be used to assay the growth-inhibiting ability or cell toxicity of a compound against various cancer and tumor at a certain concentration. The NCI had selected 6 compounds synthesized above, and performed cell toxicity assay against 60 kinds of cancer cell strains (Table 2) (DTP Human Tumor Cell Line Screen), in which each compound was assayed at a certain concentration to observe its inhibition ability or cell toxicity against various kinds of cancer and tumor.

NCI-H460 = assay: NCI 60-cell drug screen, one dose; format: cell-based, human; details: Non-Small Cell Lung Cancer NCI-H460, 1.00E−5 Molar
Procedure: as §1, §2

BT-549 = assay: NCI 60-cell drug screen, one dose; format: cell-based, human; details: Breast Cancer BT-549, 1.00E−5 Molar
Procedure: as §1, §2

EKVX = assay: NCI 60-cell drug screen, one dose; format: cell-based, human; details: Non-Small Cell Lung Cancer EKVX, 1.00E−5 Molar
Procedure: as §1, §2

HS 578-T = assay: NCI 60-cell drug screen, one dose; format: cell-based, human; details: Breast Cancer HS 578-T, 1.00E−5 Molar
Procedure: as §1, §2

SW-620 = assay: NCI 60-cell drug screen, one dose; format: cell-based, human; details: Colon Cancer SW-620, 1.00E−5 Molar
Procedure: as §1, §2

NCI-H23 = assay: NCI 60-cell drug screen, one dose; format: cell-based, human; details: Non-Small Cell Lung Cancer NCI-H23, 1.00E−5 Molar
Procedure: as §1, §2

SN12C = assay: NCI 60-cell drug screen, one dose; format: cell-based, human; details: Renal Cancer SN12C, 1.00E−5 Molar
Procedure: as §1, §2

HOP-92 = assay: NCI 60-cell drug screen, one dose; format: cell-based, human; details: Non-Small Cell Lung Cancer HOP-92, 1.00E−5 Molar
Procedure: as §1, §2

COLO 205 = assay: NCI 60-cell drug screen, one dose; format: cell-based, human; details: Colon Cancer COLO 205, 1.00E−5 Molar
Procedure: as §1, §2

HOP-62 = assay: NCI 60-cell drug screen, one dose; format: cell-based, human; details: Non-Small Cell Lung Cancer HOP-62, 1.00E−5 Molar
Procedure: as §1, §2

NCI-H522 = assay: NCI 60-cell drug screen, one dose; format: cell-based, human; details: Non-Small Cell Lung Cancer NCI-H522, 1.00E−5 Molar
Procedure: as §1, §2

MDA-MB-435 = assay: NCI 60-cell drug screen, one dose; format: cell-based, human; details: Melanoma MDA-MB-435, 1.00E−5 Molar
Procedure: as §1, §2

SNB-19 = assay: NCI 60-cell drug screen, one dose; format: cell-based, human; details: CNS Cancer SNB-19, 1.00E−5 Molar
Procedure: as §1, §2

T-47D = assay: NCI 60-cell drug screen, one dose; format: cell-based, human; details: Breast Cancer T-47D, 1.00E−5 Molar
Procedure: as §1, §2

ACHN = assay: NCI 60-cell drug screen, one dose; format: cell-based, human; details: Renal Cancer ACHN, 1.00E−5 Molar
Procedure: as §1, §2

SF-539 = assay: NCI 60-cell drug screen, one dose; format: cell-based, human; details: CNS Cancer SF-539, 1.00E−5 Molar
Procedure: as §1, §2

OVCAR-5 = assay: NCI 60-cell drug screen, one dose; format: cell-based, human; details: Ovarian Cancer OVCAR-5, 1.00E−5 Molar
Procedure: as §1, §2

SK-MEL-28 = assay: NCI 60-cell drug screen, one dose; format: cell-based, human; details: Melanoma SK-MEL-28, 1.00E−5 Molar
Procedure: as §1, §2

786-0 = assay: NCI 60-cell drug screen, one dose; format: cell-based, human; details: Renal Cancer 786-0, 1.00E−5 Molar
Procedure: as §1, §2

M14 = assay: NCI 60-cell drug screen, one dose; format: cell-based, human; details: Melanoma M14, 1.00E−5 Molar
Procedure: as §1, §2

SK-MEL-5 = assay: NCI 60-cell drug screen, one dose; format: cell-based, human; details: Melanoma SK-MEL-5, 1.00E−5 Molar
Procedure: as §1, §2

NCI-H322M = assay: NCI 60-cell drug screen, one dose; format: cell-based, human; details: Non-Small Cell Lung Cancer NCI-H322M, 1.00E−5 Molar
Procedure: as §1, §2

LOX IMVI = assay: NCI 60-cell drug screen, one dose; format: cell-based, human; details: Melanoma LOX IMVI, 1.00E−5 Molar
Procedure: as §1, §2

KM12 = assay: NCI 60-cell drug screen, one dose; format: cell-based, human; details: Colon Cancer KM12, 1.00E−5 Molar
Procedure: as §1, §2

MCF7 = assay: NCI 60-cell drug screen, one dose; format: cell-based, human; details: Breast Cancer MCF7, 1.00E−5 Molar
Procedure: as §1, §2

[2] = system: 60 kinds of different human cancer cells; assay: NCI 60-cell drug screen, one dose, whole panel; format: cell-based; details: mean over the tested cell lines, 1.00E−5 Molar
Procedure: as §1, §2

O=C1c2ccccc2C(=O)c2c1ccc1nc(CN3CCCCC3)[nH]c21 [CL16, 2-((piperidin-1-yl)methyl)-1H-anthra[1,2-d]imidazole-6,11-dione]
activity at 1 µM [1]: 75.8 ± 26.9%
activity at 10 µM [1]: < 50%
activity at 100 µM [1]: 6.78%
Growth Percent (HT29): 61.38%
Growth Percent (NCI-H460): 64.61%
Growth Percent (BT-549): 109.47%
Growth Percent (EKVX): 77.14%
Growth Percent (HS 578-T): 50.98%
Growth Percent (SW-620): 71.72%
Growth Percent (NCI-H23): 81.32%
Growth Percent (SN12C): 96.96%
Growth Percent (HOP-92): 80.97%
Growth Percent (COLO 205): 74.65%
Growth Percent (HOP-62): 92.69%
Growth Percent (NCI-H522): 84.14%
Growth Percent (MDA-MB-435): 102.02%
Growth Percent (SNB-19): 76.33%
Growth Percent (T-47D): 69.11%
Growth Percent (ACHN): 47.11%
Growth Percent (SF-539): 82.47%
Growth Percent (OVCAR-5): 101.70%
Growth Percent (SK-MEL-28): 107.08%
Growth Percent (786-0): 62.88%
Growth Percent (M14): 100.82%
Growth Percent (SK-MEL-5): 65.73%
Growth Percent (NCI-H322M): 92.47%
Growth Percent (LOX IMVI): 62.99%
Growth Percent (KM12): 77.40%
Growth Percent (MCF7): 42.74%
Growth Percent, Mean [2]: 75.35%

O=C1c2ccccc2C(=O)c2c1ccc1nc(CN3CCN(c4ccccn4)CC3)[nH]c21 [CL28, 2-((4-(pyridin-2-yl)piperazin-1-yl)methyl)-1H-anthra[1,2-d]imidazole-6,11-dione]
activity at 1 µM [1]: 91.2 ± 2.69%
activity at 10 µM [1]: 57.1%
activity at 100 µM [1]: 1.12%
Growth Percent (HT29): 75.79%
Growth Percent (NCI-H460): 79.98%
Growth Percent (BT-549): 102.42%
Growth Percent (EKVX): 63.00%
Growth Percent (HS 578-T): 111.04%
Growth Percent (SW-620): 85.97%
Growth Percent (NCI-H23): 81.65%
Growth Percent (SN12C): 79.85%
Growth Percent (HOP-92): 93.87%
Growth Percent (COLO 205): 110.79%
Growth Percent (HOP-62): 103.18%
Growth Percent (NCI-H522): 94.06%
Growth Percent (MDA-MB-435): 94.85%
Growth Percent (SNB-19): 81.00%
Growth Percent (T-47D): 56.78%
Growth Percent (ACHN): 80.61%
Growth Percent (SF-539): 104.29%
Growth Percent (OVCAR-5): 110.77%
Growth Percent (SK-MEL-28): 114.23%
Growth Percent (786-0): 91.03%
Growth Percent (M14): 103.99%
Growth Percent (SK-MEL-5): 83.56%
Growth Percent (NCI-H322M): 93.77%
Growth Percent (LOX IMVI): 82.25%
Growth Percent (KM12): 95.03%
Growth Percent (MCF7): 81.99%
Growth Percent, Mean [2]: 87.65%

CN(CCc1ccccn1)Cc1nc2ccc3c(c2[nH]1)C(=O)c1ccccc1C3=O [CL07, 2-((N-methyl-2-(pyridin-2-yl)ethanamino)methyl)-1H-anthra[1,2-d]imidazole-6,11-dione]
activity at 1 µM [1]: 96.5 ± 5.53%
activity at 10 µM [1]: < 50%
activity at 100 µM [1]: -3.16%
Growth Percent (HT29): 84.18%
Growth Percent (NCI-H460): 90.27%
Growth Percent (BT-549): 114.38%
Growth Percent (EKVX): 82.24%
Growth Percent (HS 578-T): 108.96%
Growth Percent (SW-620): 100.52%
Growth Percent (NCI-H23): 90.81%
Growth Percent (SN12C): 91.19%
Growth Percent (HOP-92): 101.41%
Growth Percent (COLO 205): 117.88%
Growth Percent (HOP-62): 105.37%
Growth Percent (NCI-H522): 86.39%
Growth Percent (MDA-MB-435): 93.53%
Growth Percent (SNB-19): 87.77%
Growth Percent (T-47D): 68.45%
Growth Percent (ACHN): 80.20%
Growth Percent (SF-539): 102.32%
Growth Percent (OVCAR-5): 109.14%
Growth Percent (SK-MEL-28): 97.01%
Growth Percent (786-0): 89.74%
Growth Percent (M14): 106.97%
Growth Percent (SK-MEL-5): 75.48%
Growth Percent (NCI-H322M): 102.29%
Growth Percent (LOX IMVI): 89.67%
Growth Percent (KM12): 89.03%
Growth Percent (MCF7): 69.06%
Growth Percent, Mean [2]: 89.07%

O=C1c2ccccc2C(=O)c2c1ccc1nc(CN3CCN(c4ccccc4)CC3)[nH]c21 [CL27, 2-((4-phenylpiperazin-1-yl)methyl)-1H-anthra[1,2-d]imidazole-6,11-dione]
activity at 1 µM [1]: 92.23 ± 0.78%
activity at 10 µM [1]: 76.7%
activity at 100 µM [1]: 5.83%
Growth Percent (HT29): 87.57%
Growth Percent (NCI-H460): 94.45%
Growth Percent (BT-549): 110.22%
Growth Percent (EKVX): 88.70%
Growth Percent (HS 578-T): 80.56%
Growth Percent (SW-620): 90.92%
Growth Percent (NCI-H23): 92.11%
Growth Percent (SN12C): 89.91%
Growth Percent (HOP-92): 178.61%
Growth Percent (COLO 205): 128.37%
Growth Percent (HOP-62): 98.40%
Growth Percent (NCI-H522): 73.61%
Growth Percent (MDA-MB-435): 101.37%
Growth Percent (SNB-19): 103.62%
Growth Percent (T-47D): 66.35%
Growth Percent (ACHN): 86.32%
Growth Percent (SF-539): 112.36%
Growth Percent (OVCAR-5): 107.63%
Growth Percent (SK-MEL-28): 127.46%
Growth Percent (786-0): 88.48%
Growth Percent (M14): 106.33%
Growth Percent (SK-MEL-5): 74.84%
Growth Percent (NCI-H322M): 91.96%
Growth Percent (LOX IMVI): 95.76%
Growth Percent (KM12): 85.80%
Growth Percent (MCF7): 66.08%
Growth Percent, Mean [2]: 90.15%

Reference: US8124637B2, “Anthra [1, 2-d]imidazole-6,11-dione derivatives, preparation method and application thereof” (National Defense Medical Center, priority 2010, dated 2012)
